Data reported in BindingDB's records for doi:10.3109/14756366.2010.486793 (University of Zimbabwe, 2010).

target: glutathione S-transferase (Plasmodium falciparum); experiment: A range of natural products were screened for inhibition of PfGST by GST assay with CDNB as a substrate, using a 96-well SpectraMax 340 microplate spectrophotometer equipped with a kinetics mode (Molecular Devices, California). The final concentration of CDNB was 0.5 mM and of GSH was 1mM. Ethacrynic acid (ETA) and haemin were used as positive controls. The incub

Row | Structure (SMILES) | IC50 [µM]
1 | C=Cc1c(OC=O)cc(O)c2c1OC(c1ccc(O)c(O)c1)C(O)C2 (stereo not drawn) [TRAL-1] | 12
2 | COC(=O)[C@@H]1[C@@H]2C[C@H]3N(C)CC[C@@]34c3ccccc3N(C(C)=O)[C@H]4[C@@H]2CO[C@@H]1C [Malagashanine] | > 100
3 | C=C1C(=O)OC2/C=C(\COC(C)=O)CC/C=C(\CO)CC(OC(C)=O)[C@@H]12 (stereo partly drawn) [JB42C] | 8.5
